Common to all, as to assay: ≥ marks a high value that may be exact or a test limit, other limits are often not marked, values filed in µg/mL are converted to µM
Assay [1] concerns Candida albicans.
In assay [2] the test system is Escherichia coli UB1005.
The subject of assay [3] is Ralstonia pickettii.
Assay [4] deals with Pseudomonas aeruginosa R70.
For assay [5], the system named is Stenotrophomonas maltophilia.
Assay [6] relates to Pseudomonas fluorescens.
Assay [7] relates to Staphylococcus aureus.
The subject of assay [8] is Pseudomonas aeruginosa M76.
In assay [9] the test system is Pseudomonas aeruginosa M1251.
In assay [10] the test system is Pseudomonas aeruginosa PAO1.
The test system of assay [11] is Salmonella enterica serovar Typhimurium.
In assay [12] the test system is Achromobacter xylosoxidans.
For assay [13], the system named is Pseudomonas aeruginosa M917.
The test system of assay [14] is Pseudomonas aeruginosa M1426.
The subject of assay [15] is Pseudomonas aeruginosa Z61.
In assay [16] the test system is Pseudomonas aeruginosa H374.
Assay [17] concerns Salmonella enterica subsp. enterica serovar Typhimurium ATCC 14028s.
Assay [18] relates to Pseudomonas aeruginosa H547.
In assay [19] the test system is Pseudomonas aeruginosa H744.
Assay [20] concerns Pseudomonas aeruginosa K799.
Assay [21] relates to Klebsiella pneumoniae ATCC 700603.
The subject of assay [22] is Acinetobacter baumannii 9931.
Assay [23] has as its system Acinetobacter baumannii ATCC 19606.
The subject of assay [24] is Staphylococcus aureus 75.
For assay [25], the system named is Pseudomonas aeruginosa ATCC 9027.
The subject of assay [26] is Pseudomonas aeruginosa 50.
In assay [27] the test system is Staphylococcus aureus ATCC 29213.
Assay [28] relates to Pseudomonas aeruginosa 73.
The test system of assay [29] is Acinetobacter baumannii 97830.
In assay [30] the test system is Escherichia coli 804.
Assay [31] deals with Bacillus subtilis ATCC 23857.
In assay [32] the test system is Escherichia coli 780.
The test system of assay [33] is Staphylococcus aureus 113.
For assay [34], the system named is Pseudomonas aeruginosa ATCC 27853.
The test system of assay [35] is Staphylococcus epidermidis ATCC 12228.
Assay [36] relates to Burkholderia cepacia ATCC 25416.
Assay [37] concerns Fusarium graminearum.

Converted amounts (≈) assume the structure as drawn.

Regarding `CC(C)C[C@H](NC(=O)[C@H](C)NC(=O)[C@H](CCCCN)NC(=O)[C@H](CCCCN)NC(=O)[C@H](C)NC(=O)[C@H](CC(C)C)NC(=O)[C@H](CCCCN)NC(=O)[C@H](CCCCN)NC(=O)[C@H](CC(C)C)NC(=O)[C@H](CCCCN)NC(=O)[C@H](CCCCN)NC(=O)[C@H](CC(C)C)NC(=O)[C@H](CC(C)C)NC(=O)[C@H](CCCCN)NC(=O)[C@H](CCCCN)NC(=O)[C@H](CC(C)C)NC(=O)[C@H](C)NC(=O)[C@H](CCCCN)NC(=O)[C@H](CC(C)C)NC(=O)[C@H](C)NC(=O)[C@H](CC(C)C)NC(=O)[C@H](C)NC(=O)[C@@H](N)Cc1ccccc1)C(N)=O` [FALALKALKKLLKKLKKLAKKAL], the MIC in assay [1] stood at 24.8 µM (≈ 64 µg/mL); in assay [2] it was 1.55 µM (≈ 4 µg/mL); in assay [3], 1.55 µM (≈ 4 µg/mL); in assay [4] it was 6.2 µM (≈ 16 µg/mL); in [5] it was 1.55 µM (≈ 4 µg/mL); in assay [6] it was 3.1 µM (≈ 8 µg/mL). The minimum inhibitory concentration (MIC) in assay [7] is 3.1 µM (≈ 8 µg/mL); in [8], 12.4 µM (≈ 32 µg/mL); in assay [9], 6.2 µM (≈ 16 µg/mL); in [10], 3.1 µM (≈ 8 µg/mL); in assay [11] it was 3.1 µM (≈ 8 µg/mL); in [12] it was 12.4 µM (≈ 32 µg/mL). In addition, the minimum inhibitory concentration (MIC) was at least 49.6 µM in assay [13] and 6.2 µM (≈ 16 µg/mL) in [14].
As to `CC[C@H](C)[C@H](NC(=O)[C@H](Cc1ccccc1)NC(=O)[C@H](CO)NC(=O)[C@H](CCCCN)NC(=O)[C@H](Cc1ccccc1)NC(=O)[C@@H](NC(=O)[C@H](CCCCN)NC(=O)[C@@H](N)Cc1c[nH]c2ccccc12)C(C)C)C(=O)N[C@@H](CCCCN)C(=O)N[C@@H](CCCCN)C(=O)N[C@@H](C)C(=O)N[C@@H](CO)C(=O)N[C@@H](CO)C(=O)N[C@@H](Cc1ccccc1)C(=O)N[C@@H](C)C(=O)N[C@@H](CCC(N)=O)C(=O)N[C@@H](CO)C(=O)N[C@H](C(=O)N[C@@H](CC(C)C)C(=O)N[C@@H](CC(=O)O)C(=O)O)C(C)C` [WKVFKSFIKKASSFAQSVLD], the MIC in assay [2] turned out to be 4.75 µM (≈ 11 µg/mL); in assay [15], 27.6 µM (≈ 64 µg/mL); in [16], 27.6 µM (≈ 64 µg/mL); in assay [17] it was 27.6 µM (≈ 64 µg/mL); in assay [18], 27.6 µM (≈ 64 µg/mL); in assay [19] it was 27.6 µM (≈ 64 µg/mL). Also, the MIC in [20] turned out to be 27.6 µM (≈ 64 µg/mL).
For `CC(C)C[C@H](NC(=O)[C@H](Cc1c[nH]c2ccccc12)NC(=O)[C@H](CCCN=C(N)N)NC(=O)[C@H](Cc1c[nH]c2ccccc12)NC(=O)[C@H](Cc1c[nH]c2ccccc12)NC(=O)[C@H](Cc1c[nH]c2ccccc12)NC(=O)[C@H](CCCN=C(N)N)NC(=O)[C@H](Cc1c[nH]c2ccccc12)NC(=O)[C@@H](N)CC(C)C)C(N)=O` [LWRWWWRWL], the MIC in assay [21] is 8 µM (≈ 11.9 µg/mL); in assay [22] it was 16 µM (≈ 23.8 µg/mL); in [23], 16 µM (≈ 23.8 µg/mL); in assay [24], 4 µM (≈ 5.95 µg/mL); in assay [25] it was 32 µM (≈ 47.6 µg/mL); in [26], at least 32 µM. For the same molecule, the minimal inhibitory concentration (MIC) in assay [27] is 4 µM (≈ 5.95 µg/mL); in [28], at least 64 µM; in assay [29], 8 µM (≈ 11.9 µg/mL); in assay [30], at least 32 µM; in [31], 4 µM (≈ 5.95 µg/mL); in assay [32] it was 16 µM (≈ 23.8 µg/mL). In addition, the MIC is 4 µM (≈ 5.95 µg/mL) in assay [33], 128 µM (≈ 190 µg/mL) in assay [34] and 4 µM (≈ 5.95 µg/mL) in [35].
Turning to `CC[C@H](C)[C@H](NC(=O)CNC(=O)[C@@H](NC(=O)[C@H](CCCCN)NC(=O)[C@H](CCCCN)NC(=O)[C@H](Cc1ccccc1)NC(=O)[C@H](CCCCN)NC(=O)[C@H](Cc1c[nH]c2ccccc12)NC(=O)[C@@H](N)CCCCN)[C@@H](C)CC)C(=O)NCC(=O)N[C@@H](C)C(=O)N[C@H](C(=O)N[C@@H](CC(C)C)C(=O)N[C@@H](CCCCN)C(=O)N[C@H](C(=O)N[C@@H](CC(C)C)C(=O)N[C@H](C(=O)N[C@H](C(=O)NCC(=O)N[C@@H](CC(C)C)C(=O)N1CCC[C@H]1C(=O)N[C@@H](C)C(=O)N[C@@H](CC(C)C)C(=O)N[C@@H](CCCCN)C(=O)N[C@@H](CC(C)C)C(=O)N[C@H](C(=O)N[C@@H](CC(C)C)C(=O)N[C@@H](CCCCN)C(=O)O)[C@@H](C)O)[C@@H](C)O)[C@@H](C)O)C(C)C)C(C)C` [KWKFKKIGIGAVLKVLTTGLPALKLTLK], the MIC came out at 0.652 µM (≈ 2 µg/mL) in assay [2]; 1.63 µM (≈ 5 µg/mL) in assay [15]; 20.9 µM (≈ 64 µg/mL) in [36]; 1.3 µM (≈ 4 µg/mL) in assay [17]; 0.652 µM (≈ 2 µg/mL) in [18]; 0.326 µM (≈ 1 µg/mL) in assay [19]. The same molecule showed a minimal inhibitory concentration (MIC) in [20] of 1.96 µM (≈ 6 µg/mL).
As to `CSCC[C@H](NC(=O)[C@H](Cc1cnc[nH]1)NC(=O)[C@H](CCCCN)NC(=O)CNC(=O)[C@H](CC(N)=O)NC(=O)[C@H](CCCN=C(N)N)NC(=O)[C@@H](NC(=O)[C@H](Cc1cnc[nH]1)NC(=O)[C@H](CS)NC(=O)[C@H](C)NC(=O)CNC(=O)[C@H](Cc1cnc[nH]1)NC(=O)[C@@H](NC(=O)[C@H](C)NC(=O)CNC(=O)[C@H](CCC(=O)O)NC(=O)[C@@H](N)Cc1c[nH]c2ccccc12)C(C)C)C(C)C)C(=O)N[C@@H](CS)C(=O)O` [WEGAVHGACHVRNGKHMC], the minimal inhibitory concentration (MIC) in assay [37] is 20 µM (≈ 39.8 µg/mL).

As a reminder, the MIC is the smallest concentration in the dilution series that meets the test's criterion for growth inhibition. Read a high MIC as a need for much substance.

The values above are taken from DBAASP.
